Consider 24 molecules from PubChem BioAssay AID256 (DTP/NCI, 2004).

The assay relates to CD2F1 mice, L1210 leukemia ip, survival T/C. Put plainly: NCI In Vivo Anticancer Drug Screen. Data for tumor model L1210 Leukemia (intraperitoneal) in CD2F1 (CDF1) mice. The settings on record: endpoint: mean survival time, higher = longer survival. The essentials:
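Each value reflects a quotient of treated over vehicle control outcomes in mice with a transplanted tumor.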

Setting [1] is: dose: 100.0 mg/kg/injection, schedule: Q04DX002 (ip), vehicle: saline with Tween-80.
The mark [2] stands for this setting: dose: 200.0 mg/kg/injection, schedule: Q04DX002 (ip), vehicle: saline with Tween-80.
[3] abbreviates: dose: 100.0 mg/kg/injection, schedule: Q01DX009 (ip), vehicle: saline with Tween-80.
The mark [4] stands for this setting: dose: 200.0 mg/kg/injection, schedule: Q01DX009 (ip), vehicle: saline with Tween-80.
[5] abbreviates: dose: 100.0 mg/kg/injection, schedule: Q04DX003 (ip), vehicle: saline with Tween-80.
Where [6] appears, read: dose: 200.0 mg/kg/injection, schedule: Q04DX003 (ip), vehicle: saline with Tween-80.
Setting [7] is: dose: 400.0 mg/kg/injection, schedule: Q04DX003 (ip), vehicle: saline with Tween-80.
The mark [8] stands for this setting: dose: 25.0 mg/kg/injection, schedule: Q01DX009 (ip), vehicle: saline.
Setting [9] is: dose: 50.0 mg/kg/injection, schedule: Q01DX009 (ip), vehicle: saline.
The mark [10] stands for this setting: dose: 100.0 mg/kg/injection, schedule: Q01DX009 (ip), vehicle: saline.
[11] abbreviates: dose: 200.0 mg/kg/injection, schedule: Q01DX009 (ip), vehicle: saline.

SMILES strings stand for the structures. Where “and” joins values, the source holds several entries; their conditions need not be identical. Equal values may be shown once. Toxic doses and inconclusive results are not listed.

Take `CCOC(=O)N(N=O)c1ccc2c(c1)C(=O)c1ccccc1-2`: the T/C was 103 % of control (dose: 100.0 mg/kg/injection, schedule: Q01DX001 (ip), vehicle: carboxymethylcellulose (CMC)); 97 % of control (dose: 200.0 mg/kg/injection, schedule: Q01DX001 (ip), vehicle: carboxymethylcellulose (CMC)); 94 % of control (dose: 400.0 mg/kg/injection, schedule: Q01DX001 (ip), vehicle: carboxymethylcellulose (CMC)).

For `CC(C)(CCC#N)C(=O)c1ccccc1`, the T/C is 94 % of control under setting [1] and 102 % of control under setting [2].

Turning to `O=[N+]([O-])c1ccc(OCc2ccccc2)cc1`, the T/C is 98 % of control under setting [3]; 98 % of control under setting [4]; 98 % of control (dose: 400.0 mg/kg/injection, schedule: Q01DX009 (ip), vehicle: saline with Tween-80).

As for `NP(N)(=O)c1ccccc1`, the T/C is, setting by setting: (dose: 100.0 mg/kg/injection, schedule: Q04DX003 (ip), vehicle: saline) 94 % of control; (dose: 200.0 mg/kg/injection, schedule: Q04DX003 (ip), vehicle: saline) 98 % of control; (dose: 400.0 mg/kg/injection, schedule: Q04DX003 (ip), vehicle: saline) 94 % of control.

For the molecule `c1ccc(C2CC2c2ccccc2)cc1` (stereo unspecified), the T/C by setting is: (dose: 75.0 mg/kg/injection, schedule: Q01DX001 (ip), vehicle: saline) 100 % of control; (dose: 150.0 mg/kg/injection, schedule: Q01DX001 (ip), vehicle: saline) 96 % of control; (dose: 300.0 mg/kg/injection, schedule: Q01DX001 (ip), vehicle: saline) 98 % of control.

In the case of `Nc1c(Cl)c(Cl)c(Br)c(Cl)c1Cl`, the T/C is 91 % of control under setting [5], 105 % of control under setting [6] and 97 % of control under setting [7].

In the case of `O=C(Nc1ccccc1)Oc1ccc2ccccc2c1`, the T/C (dose: 100.0 mg/kg/injection, schedule: Q01DX001 (ip), vehicle: saline) was 96 % of control; the T/C (dose: 200.0 mg/kg/injection, schedule: Q01DX001 (ip), vehicle: saline) is 94 % of control; the T/C (dose: 400.0 mg/kg/injection, schedule: Q01DX001 (ip), vehicle: saline) is 97 % of control.

Take `CN(C)CC(Cl)CCl` (stereo unspecified): the T/C reads like this: (dose: 12.5 mg/kg/injection, schedule: Q01DX009 (ip), vehicle: saline) 98 % of control; under setting [8], 98 % of control; under setting [9], 104 % of control; under setting [10], 105 % of control and 108 % of control; under setting [11], 116 % of control and 101 % of control.

Turning to `NC(C(=O)O)=C(c1ccccc1)c1ccccc1`, the T/C runs as follows: under setting [1], 98 % of control; under setting [2], 102 % of control; (dose: 400.0 mg/kg/injection, schedule: Q04DX002 (ip), vehicle: saline with Tween-80) 102 % of control.

`COc1ccc(O)cc1C`: the T/C is, setting by setting: (dose: 100.0 mg/kg/injection, schedule: Q01DX009 (ip), vehicle: other) 96 % of control; (dose: 200.0 mg/kg/injection, schedule: Q01DX009 (ip), vehicle: other) 102 % of control; (dose: 400.0 mg/kg/injection, schedule: Q01DX009 (ip), vehicle: other) 98 % of control.

As to `CCN(CC)CCCNc1c2ccc(Cl)cc2nc2ccc(OC)nc12`, the T/C reads like this: (dose: 50.0 mg/kg/injection, schedule: Q01DX009 (ip), vehicle: saline with Tween-80) 109 % of control; under setting [3], 97 % of control; under setting [4], 114 % of control.

Take `COc1cccc(C(=O)c2ccncc2)c1OC`: the T/C was 91 % of control (dose: 25.0 mg/kg/injection, schedule: Q01DX009 (ip), vehicle: water); 95 % of control (dose: 100.0 mg/kg/injection, schedule: Q01DX009 (ip), vehicle: water); 90 % of control (dose: 200.0 mg/kg/injection, schedule: Q01DX009 (ip), vehicle: water).

Take `CC1=CC(C)N(C(=O)c2ccc(Cl)cc2)CCN1C(=O)c1ccc(Cl)cc1` (stereo unspecified): the T/C was 98 % of control under setting [5], 102 % of control under setting [6] and 102 % of control under setting [7].

In the case of `N#Cc1ccc(CCl)cc1`, the T/C was 98 % of control (dose: 50.0 mg/kg/injection, schedule: Q01DX009 (ip), vehicle: Klucel (hydroxypropylcellulose) (HPC)) and 98 % of control (dose: 100.0 mg/kg/injection, schedule: Q01DX009 (ip), vehicle: Klucel (hydroxypropylcellulose) (HPC)).

On to `O=C(O)c1cccc(-c2ccccc2)c1`, for which the T/C runs as follows: under setting [10], 104 % of control; under setting [11], 154 % of control; (dose: 400.0 mg/kg/injection, schedule: Q01DX009 (ip), vehicle: saline) 93 % of control.

`CC[n+]1ccc(Nc2ccc(NC(=O)c3ccc(Nc4cc[n+](CC)c5ccc([N+](=O)[O-])cc45)cc3)cc2)cc1`: the T/C is, setting by setting: (dose: 2.0 mg/kg/injection, schedule: Q01DX009 (ip), vehicle: saline sonified) 105 % of control; (dose: 4.0 mg/kg/injection, schedule: Q01DX009 (ip), vehicle: saline sonified) 108 % of control; (dose: 8.0 mg/kg/injection, schedule: Q01DX009 (ip), vehicle: saline sonified) 123 % of control; (dose: 11.0 mg/kg/injection, schedule: Q01DX009 (ip), vehicle: saline) 119 % of control; under setting [8], 162 % of control; (dose: 37.5 mg/kg/injection, schedule: Q01DX009 (ip), vehicle: saline) 203 % of control.

As for `Cn1cccnc1=O`, the T/C reads like this: (dose: 100.0 mg/kg/injection, schedule: Q04DX002 (ip), vehicle: saline) 106 % of control; (dose: 200.0 mg/kg/injection, schedule: Q04DX002 (ip), vehicle: saline) 95 % of control; (dose: 400.0 mg/kg/injection, schedule: Q04DX002 (ip), vehicle: saline) 106 % of control.

Take `CCOC(CSCC#N)OCC`: the T/C was 102 % of control (dose: 12.5 mg/kg/injection, schedule: Q01DX009 (ip), vehicle: saline sonified); 98 % of control (dose: 12.5 mg/kg/injection, schedule: Q04DX003 (ip), vehicle: saline sonified); 104 % of control (dose: 25.0 mg/kg/injection, schedule: Q01DX009 (ip), vehicle: saline sonified); 98 % of control (dose: 25.0 mg/kg/injection, schedule: Q04DX003 (ip), vehicle: saline sonified); 102 % of control (dose: 50.0 mg/kg/injection, schedule: Q01DX009 (ip), vehicle: saline sonified); 98 % of control (dose: 50.0 mg/kg/injection, schedule: Q04DX003 (ip), vehicle: saline sonified).

Regarding `CCCCCC(=O)NNc1nc(N)nc2nonc12`, the T/C was 109 % of control (dose: 6.25 mg/kg/injection, schedule: Q01DX005 (ip), vehicle: other); 97 % of control (dose: 12.5 mg/kg/injection, schedule: Q01DX005 (ip), vehicle: other); 105 % of control (dose: 25.0 mg/kg/injection, schedule: Q01DX005 (ip), vehicle: other); 97 % of control (dose: 50.0 mg/kg/injection, schedule: Q01DX005 (ip), vehicle: other); 100 % of control (dose: 100.0 mg/kg/injection, schedule: Q01DX005 (ip), vehicle: other).

As to `COC(=O)C1(C)CCCC2(C)C1CCC13C=C(C(C)C)C(CC1C(=O)O)CC23` (stereo unspecified), the T/C under setting [5] is 97 % of control, the T/C under setting [6] was 101 % of control and the T/C under setting [7] is 93 % of control.

Regarding `O=P(O)(O)OCC(O)CO.[NH-]C1CCCCC1[NH-].[Pt+2]` (stereo unspecified), the T/C is, setting by setting: (dose: 1.17 mg/kg/injection, schedule: Q04DX003 (ip), vehicle: other) 115 % of control; (dose: 9.38 mg/kg/injection, schedule: Q04DX003 (ip), vehicle: other) 231 % of control; (dose: 18.75 mg/kg/injection, schedule: Q04DX003 (ip), vehicle: other) 186 % of control; (dose: 37.5 mg/kg/injection, schedule: Q04DX003 (ip), vehicle: other) 104 % of control.

Regarding `CC1(C)CC(C)(Br)C(Br)C(=O)C1C(O)(C(F)(F)F)C(F)(F)F` (stereo unspecified), the T/C by setting is: under setting [5], 100 % of control; under setting [6], 97 % of control; under setting [7], 100 % of control.

`C=CCNC1CCS(=O)(=O)C1` (stereo unspecified): the T/C is, setting by setting: under setting [9], 104 % of control; under setting [10], 97 % of control; under setting [11], 104 % of control.

With `CCO[Si](C)(OCC)OCC`, the T/C runs as follows: under setting [9], 101 % of control; under setting [10], 101 % of control; under setting [11], 96 % of control.
